Reference: patent publication US20250249025A1, “DRUG DELIVERY CARRIER UTILIZING PROPERTY OF D-ALLOSE BEING UPTAKEN BY CANCER CELL, DRUG DELIVERY METHOD, AND COMPOSITION FOR TREATING RENAL CELL CARCINOMA” (NATIONAL UNIVERSITY CORPORATION KAGAWA UNIVERSITY, priority 2019, published 2025)

Columns and labels:
[1] = system: human bladder carcinoma cell line J82; experiment: Rare sugar uptake experiment, sugar content in disrupted cell suspension of J82; type: cell-based
Procedure: (§1) An uptake amount of a rare sugar, which had been added to a medium, into carcinoma cells was analyzed using the cell lines of three types of cancers. As the rare sugar, four kinds, that is, D-allose, D-allulose (D-psicose), L-allulose (L-psicose), and allitol were used, while D-glucose and fructose were used as a monosaccharide which was not a rare sugar.
(§2) Cells of each of the cell lines were cultured in RPMI-1640 media and during culturing, six sugars were each added to the resulting media and cultured. After culturing, an amount of each sugar taken up into the cells was analyzed. The medium to which no sugar was added during culturing was used as a control.
(§3) Used were human bladder carcinoma cell lines (RT112, 253), and J82), human prostatic carcinoma cell lines (LNCa, Du145, and PC-3), and human renal cell carcinoma cell lines (ACHN, Caki-I, and Caki-II).
(§4) After cells were cultured in RPMI-1640 (2000 mg D-glucose/L) media, the above monosaccharides and rare sugars were added to the resulting media, respectively. Described specifically, they were following seven combinations: RPMI-1640 alone (control), RPMI-1640+D-glucose, RPMI-1640+L-allulose, RPMI-1640+D-allulose, RPMI-1640+D-fructose, RPMI-1640+D-allose, and RPMI-1640+D-allitol. The final concentration of the sugar in the medium was adjusted to 10 mM and no sugar was added in the control.
(§5) Five-ml portions of a 3.0×10^4 cells/ml cell suspension prepared using RPMI-1640 were seeded in dishes having a diameter of 6 cm (1.5×10^5 cells/dish) and cultured for 24 hours in the RPMI-1640 medium containing 2000 mg/l of D-glucose as a nutrient source. Twenty-four hours later, the media were changed to the culture solutions containing the monosaccharides and rare sugars described above in 2), respectively, followed by culturing for 48 hours.
(§6) After culturing for 48 hours, the attached human carcinoma cells were mechanically separated and collected in a Spitz tube together with the culture solution and floating cells. After the supernatant formed by centrifugation (4° C., 1200 rpm, and 5 minutes) was removed to obtain cell pellets alone, 5 ml of a phosphate buffer physiological saline (PBS) was added for the purpose of washing to obtain a cell suspension of the cell pellets. A gain, the resulting cell suspension was centrifuged at 4° C. and 1200 rpm for 5 minutes and the supernatant was removed. To the cell pellets after washing was added 1 ml of pure water to suspend them therein. Ultrasonic disruption (intensity: 40%, 30 seconds) was then performed and the monosaccharide in the disrupted cell suspension was labeled with ABEE, followed by analysis by HPLC. From the area thus obtained, the sugar content in the cells was determined using a calibration curve. With respect to the ketose, two peaks were found after labeling with ABEE so that the sugar content in the cells was determined from the calibration curves of both peaks.

[2] = system: human renal cell carcinoma cell line Caki-II; experiment: Rare sugar uptake experiment, sugar content in disrupted cell suspension of Caki-II; type: cell-based
Procedure: as §1, §2, §3, §4, §5, §6

[3] = system: human carcinoma cell lines; type: cell-based; conditions: 48 h, 10 mM
Procedure: as §1, §2
Used were human bladder carcinoma cell lines (RT112, 253), and J82), human prostatic carcinoma cell lines (LNCa, Du145, and PC-3), and human renal cell carcinoma cell lines (ACHN, Caki-I, and Caki-II). […]
After culturing for 48 hours, the attached human carcinoma cells were mechanically separated and collected in a Spitz tube together with the culture solution and floating cells. […] From the area thus obtained, the sugar content in the cells was determined using a calibration curve. With respect to the ketose, two peaks were found after labeling with ABEE so that the sugar content in the cells was determined from the calibration curves of both peaks.

[4] = system: renal cell carcinoma cell line (ACHN); experiment: Cell survival assay (MTT assay), ACHN; type: cell-based, human; conditions: 10 mM, 25 mM and 50 mM in MEM, 24 hours, compared with Control (p<0.05), FIG. 1
Procedure: (§7) The antitumor effect of rare sugars was analyzed using the three human renal cell carcinoma cell lines (ACHN, Caki-I, and Caki-II) used in Example 1. As the rare sugars, used were the following ten rare sugars: L-allulose, D-allulose, D-allose, L-fructose, D-mannose, L-sorbose, D-tagatose, D-galactose, D-sorbose, and L-tagatose, while as monosaccharides not belonging to rare sugars, D-glucose and D-fructose were used.
(§8) As a medium, a minimum essential medium (MEM) containing 1000 mg/l of D-glucose was used. By adjusting it to contain 10 mM, 25 mM, and 50 mM of each of the monosaccharides or rare sugars and using thus-obtained MEMs [shown by (10), (25), and (50) in the drawing], an antitumor effect of the rare sugars was evaluated.
(§9) A 5.0×10^4 cells/ml of each of cell suspensions was formed using MEM. The resulting suspension (0.1 ml/well) was distributed in a 96-well plate, followed by culturing for 24 hours. […]
(§10) The MTT assay is one of test methods for measuring survival and makes use of a color reaction of an insoluble formazan dye (blue) caused by the reduction of MTT which is a tetrazolium salt. […] The cell viability is determined by measuring this color reaction with a microplate reader.

[5] = system: renal cell carcinoma cell line (Caki-I); experiment: Cell survival assay (MTT assay), Caki-I; type: cell-based, human; conditions: 10 mM, 25 mM and 50 mM in MEM, 24 hours, compared with Control (p<0.05), FIG. 2
Procedure: as §7, §8, §9, §10

[6] = Fundamental safety tests (mutagenicity, biodegradability, oral acute toxicity, skin and eye primary irritation); conditions: conducted by a designated agency at the inventors' request
Text: With respect to the verification of the safety of D-allose necessary for the use of it as a pharmaceutical ingredient, it was expectable that it was safe because a rare sugar was a monosaccharide present in nature, though its amount was trace. A mutagenicity test, a biodegradability test, and three acute toxicity tests (oral acute toxicity test, skin primary irritation test, and eye primary irritation test) have been determined as the most fundamental safety tests. The present inventors asked a designated agency to conduct the fundamental safety tests of D-allose.

O=C[C@H](O)[C@H](O)[C@H](O)[C@H](O)CO [D-allose]
D-glucose content in cell ([1]; J82, named sugar added to RPMI-1640 at 10 mM, 48 hours, HPLC after ABEE labeling): 11.2 µg
Content in cell of the added sugar ([1]; human, 48 h, 10 mM): 0.0 µg
D-glucose content in cell ([2]; Caki-II, named sugar added to RPMI-1640 at 10 mM, 48 hours, HPLC after ABEE labeling): 3.4 µg
Content in cell of the added sugar ([2]; human, 48 h, 10 mM): 11.2 µg
Uptake into the cells [3]: found only in one (PC-3) of three human prostate carcinoma cell lines
Viability [4]: significantly reduced the viability
Viability [5]: significantly reduced the viability
Result of fundamental safety tests [6]: no safety problems
